Measurements as given in patent US6362369B1, “Phthalic acid diamide derivatives fluorine-containing aniline compounds as starting material, agricultural and horticultural insecticides, and a method for application of the insecticides” (Nihon Nohyaku Co., Ltd., priority 1997, dated 2002).

Columns and labels:
Assay type in all cases: in vivo
[1] = system: diamondback moth (Plutella xylostella); assay: Insecticidal effect on diamondback moth (Test Example 1); conditions: for Insecticidal effect, Test Example 1 / Insecticidal effect (Test Example 1), judged from mortality: diamondback moth; for Insecticidal effect (Test Example 1), judged from mortality: judged by the criterion of Test Example 1; for Insecticidal effect on diamondback moth (Test Example 1), judged grade: mortality judged according to the criterion shown in Test Example 1
Outline: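 Read-out was mortality from hatched-insect counts taken 6 days after the egg-bearing cabbage seedling was immersed, graded by set criteria. Seedlings were air-dried and kept at 25° C after treatment. Groups of 10 insects, in triplicate.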

[2] = system: common cutworm (Spodoptera Litura); assay: Insecticidal effect on common cutworm (Test Example 2); conditions: 500 ppm, 25° C.; for Insecticidal effect, Test Example 2: cabbage leaf immersed; for Insecticidal effect, Test Example 2 / Insecticidal effect on common cutworm (Test Example 2), judged grade: eight days after inoculation; for Insecticidal effect (Test Example 2), judged from mortality / Insecticidal effect on common cutworm (Test Example 2), judged grade: cabbage leaf dip; for Insecticidal effect (Test Example 2), judged from mortality: 8 days after inoculation; for Insecticidal effect on common cutworm (Test Example 2), judged grade: second-instar larvae
Outline: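 Mortality was scored 8 days post-inoculation, using three groups of 10 second-instar larvae kept at 25 °C in closed 9 cm dishes on air-dried treated material. The insecticidal effect was graded from calculated mortality by a set criterion.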

[3] = system: rice leafroller (Cnaphalocrocis medinalis); assay: Insecticidal effect on rice leafroller (Test Example 3); conditions: 500 ppm, 25° C., humidity 70%; for Insecticidal effect, Test Example 3: rice lamina immersed; for Insecticidal effect, Test Example 3 / Insecticidal effect on rice leafroller (Test Example 3), judged grade: four days after inoculation; for Insecticidal effect (Test Example 3), judged from mortality / Insecticidal effect on rice leafroller (Test Example 3), judged grade: rice lamina dip; for Insecticidal effect (Test Example 3), judged from mortality: 4 days after inoculation; for Insecticidal effect on rice leafroller (Test Example 3), judged grade: third-instar larvae
Outline: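 Groups of 10 third-instar larvae, in triplicate, are placed on air-dried lamina resting on wet filter paper. Incubation runs four days at 25° C with 70% humidity before survivors and dead are tallied.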

[4] = mortality judged by criterion of Test Example 1
[5] = common cutworm second-instar larvae
[6] = rice leafroller third-instar larvae
[7] = judged by the mortality criterion of Test Example 1
[8] = second-instar larvae of common cutworm
[9] = third-instar larvae of rice leafroller

For `C=CCNC(=O)c1c(I)cccc1C(=O)Nc1ccc(C(F)(F)C(F)(F)F)cc1C` [compound 987], the “Insecticidal effect, Test Example 1” value [1, 4] was “A (100)”, the “Insecticidal effect, Test Example 2” value [2, 5] was “A (100)” and the “Insecticidal effect, Test Example 3” value [3, 6] was “A (100)”.
With `CC(C)NC(=O)c1c(I)cccc1C(=O)Nc1ccc(SC(F)F)cc1` [compound 354] the “Insecticidal effect, Test Example 1” value [1, 7] was “A (100)”, the “Insecticidal effect, Test Example 2” value [2, 8] was “A (100)” and the “Insecticidal effect, Test Example 3” value [3, 9] was “A (100)”.
For `CCC(C)NC(=O)c1c(Cl)cccc1C(=O)Nc1ccc(C(F)(F)C(F)(F)F)cc1Cl` (stereo not drawn) [compound 1499], the “Insecticidal effect (Test Example 1), judged from mortality” value [1] was “A (100)”, the “Insecticidal effect (Test Example 2), judged from mortality” value [2, 8] was “A (100)” and the “Insecticidal effect (Test Example 3), judged from mortality” value [3, 9] was “A (100)”.
With `Cc1cc(OC(F)(F)F)ccc1NC(=O)c1cccc(Cl)c1C(=O)NC(C)C` [compound 139] the “Insecticidal effect, Test Example 1” value [1, 7] was “A (100)”, the “Insecticidal effect, Test Example 2” value [2, 8] was “A (100)” and the “Insecticidal effect, Test Example 3” value [3, 9] was “A (100)”.
In the case of `CC(C)NC(=O)c1c(C(=O)Nc2ccc(I)cc2)cccc1[N+](=O)[O-]` [compound 595], the “Insecticidal effect on diamondback moth (Test Example 1), judged grade” value (“Insecticidal effect on diamondback moth” below) [1] is reported as “A (100)”, the “Insecticidal effect on common cutworm (Test Example 2), judged grade” value (“Insecticidal effect on common cutworm” for short) [2] is reported as “A (100)” and the “Insecticidal effect on rice leafroller (Test Example 3), judged grade” value (“Insecticidal effect on rice leafroller” below) [3] is reported as “A (100)”.
In the case of `Cc1cc(Oc2cccc(C(F)(F)F)c2)ccc1NC(=O)c1c(Br)cccc1C(=O)NC(C)C` [compound 334], the “Insecticidal effect, Test Example 1” value [1, 7] is reported as “A (100)”, the “Insecticidal effect, Test Example 2” value [2, 8] is reported as “C (89-80)” and the “Insecticidal effect, Test Example 3” value [3, 9] is reported as “C (89-80)”.
For `CC(C)(C)NC(=O)c1c(I)cccc1C(=O)Nc1ccc(S(=O)(=O)C(F)(F)F)cc1` [compound 1080], the “Insecticidal effect, Test Example 1” value [1, 4] was “A (100)”, the “Insecticidal effect, Test Example 2” value [2, 5] was “A (100)” and the “Insecticidal effect, Test Example 3” value [3, 6] was “A (100)”.
`COc1ccc(C#CC(C)(C)NC(=O)c2c(Cl)cccc2C(=O)Nc2ccc(C(F)(F)C(F)(F)F)cc2C)cc1` [compound 1572] was tested, and the “Insecticidal effect (Test Example 1), judged from mortality” value [1] was “A (100)”, the “Insecticidal effect (Test Example 2), judged from mortality” value [2, 8] was “A (100)” and the “Insecticidal effect (Test Example 3), judged from mortality” value [3, 9] was “A (100)”.
`CC(C)NC(=O)c1c(Cl)cccc1C(=O)Nc1cc2c(cc1Cl)OC(F)(F)O2` [compound 1623] was tested, and the “Insecticidal effect (Test Example 1), judged from mortality” value [1] was “A (100)”, the “Insecticidal effect (Test Example 2), judged from mortality” value [2, 8] was “C (89-80)” and the “Insecticidal effect (Test Example 3), judged from mortality” value [3, 9] was “A (100)”.
With `CC(C)NC(=O)c1c(I)cccc1C(=O)Nc1ccc2c(c1Cl)OC(F)(F)C(F)O2` (racemic) [compound 1679] the “Insecticidal effect (Test Example 1), judged from mortality” value [1] was “A (100)”, the “Insecticidal effect (Test Example 2), judged from mortality” value [2, 8] was “A (100)” and the “Insecticidal effect (Test Example 3), judged from mortality” value [3, 9] was “A (100)”.
With `Cc1cc(OC(F)F)ccc1NC(=O)c1c(I)cccc1C(=O)NC(C)C` [compound 469] the “Insecticidal effect on diamondback moth” value [1] was “A (100)”, the “Insecticidal effect on common cutworm” value [2] was “A (100)” and the “Insecticidal effect on rice leafroller” value [3] was “D (79-50)”.
With `CC(C)NC(=O)c1c(I)cccc1C(=O)Nc1ccc2nc(C(C)C)sc2c1` [compound 1764] the “Insecticidal effect (Test Example 1), judged from mortality” value [1] was “A (100)”, the “Insecticidal effect (Test Example 2), judged from mortality” value [2, 8] was “A (100)” and the “Insecticidal effect (Test Example 3), judged from mortality” value [3, 9] was “A (100)”.
`CC(C)(C)NC(=O)c1c(Cl)cccc1C(=O)Nc1ccc(OC(F)(F)F)cc1Cl` [compound 1022] was tested, and the “Insecticidal effect, Test Example 1” value [1, 4] was “A (100)”, the “Insecticidal effect, Test Example 2” value [2, 5] was “A (100)” and the “Insecticidal effect, Test Example 3” value [3, 6] was “A (100)”.
`Cc1cc(OC(F)(F)C(F)F)c(Cl)cc1NC(=O)c1c(I)cccc1C(=O)NC(C)C` [compound 454] was tested, and the “Insecticidal effect on diamondback moth” value [1] was “A (100)”, the “Insecticidal effect on common cutworm” value [2] was “A (100)” and the “Insecticidal effect on rice leafroller” value [3] was “A (100)”.
In the case of `Cc1cc(C(F)(F)C(F)(F)F)ccc1NC(=O)c1ccc(F)c(Cl)c1C(=O)NC(C)C` [compound 1228], the “Insecticidal effect, Test Example 1” value [1, 4] is reported as “A (100)”, the “Insecticidal effect, Test Example 2” value [2, 5] is reported as “A (100)” and the “Insecticidal effect, Test Example 3” value [3, 6] is reported as “A (100)”.
With `CC(C)(C)NC(=O)c1c(I)cccc1C(=O)Nc1ccc2oc(C(F)(F)C(F)(F)F)nc2c1` [compound 1143] the “Insecticidal effect, Test Example 1” value [1, 4] was “A (100)”, the “Insecticidal effect, Test Example 2” value [2, 5] was “C (89-80)” and the “Insecticidal effect, Test Example 3” value [3, 6] was “A (100)”.
In the case of `Cc1cc(C(F)(F)C(F)(F)C(F)(F)F)ccc1NC(=O)c1ccccc1C(=O)NC(C)C` [compound 56], the “Insecticidal effect, Test Example 1” value [1, 7] is reported as “A (100)”, the “Insecticidal effect, Test Example 2” value [2, 8] is reported as “A (100)” and the “Insecticidal effect, Test Example 3” value [3, 9] is reported as “A (100)”.
`Cc1cc(OC(F)(F)Br)ccc1NC(=O)c1cccc(F)c1C(=O)NC(C)C` [compound 511] was tested, and the “Insecticidal effect on diamondback moth” value [1] was “A (100)”, the “Insecticidal effect on common cutworm” value [2] was “A (100)” and the “Insecticidal effect on rice leafroller” value [3] was “A (100)”.
